From patent US7462600B2, “Macrolides” (Pfizer Inc, priority 2004, dated 2008)
≈ marks a conversion by molar mass, not a printed value. Like-named read-outs stand apart in the source and are kept apart here.

Assays:
Format in all cases: cell-based
[1] = system: Streptococcus pyogenes 1079; experiment: MIC, microtiter broth dilution (NCCLS M100-S14), S. pyogenes 1079 (ermB)
Summary of the method: (§1)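 Broth dilution was run in microtiter trays and read per NCCLS M100-S14 to give MICs. Compounds came from 40 mg/ml DMSO stock solutions. The strain panel paired macrolide-susceptible parents with macrolide-resistant derivatives.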

[2] = system: Streptococcus pneumoniae 1175; conditions: microtiter broth dilution
Summary of the method: as §1

[3] = system: Streptococcus pneumoniae 1095; conditions: microtiter broth dilution
Summary of the method: as §1

[4] = system: Streptococcus pneumoniae 1016; experiment: MIC, microtiter broth dilution (NCCLS M100-S14), S. pneumoniae 1016 (susceptible)
Summary of the method: as §1

[5] = system: Haemophilus influenzae 1218; experiment: MIC, microtiter broth dilution (NCCLS M100-S14), H. influenzae 1218 (susceptible)
Summary of the method: as §1

[6] = S. pneumoniae 1016 (susceptible)
[7] = H. influenzae 1218 (susceptible)

Structure (SMILES)	MIC S. pyogenes 1079 ([1]; Streptococcus pyogenes 1079) [µg/mL]	MIC S. pneumo. 1175 ([2]; Streptococcus pneumoniae 1175) [µg/mL]	MIC S. pneumo. 1095 ([3]; Streptococcus pneumoniae 1095) [µg/mL]	MIC S. pneumo. 1016 ([4]; Streptococcus pneumoniae 1016) [µg/mL]	MIC H. influenzae 1218 ([5]; Haemophilus influenzae 1218) [µg/mL]	MIC S. pyogenes 1079 ([1]; S. pyogenes 1079 (ermB)) [µg/mL]	MIC S. pneumo. 1175 ([2]; S. pneumoniae 1175 (mefA)) [µg/mL]	MIC S. pneumo. 1095 ([3]; S. pneumoniae 1095 (ermB)) [µg/mL]	MIC S. pneumo. 1016 [4, 6] [µg/mL]	MIC H. influenzae 1218 [5, 7] [µg/mL]
CC[C@H]1OC(=O)[C@H](C)C(=O)[C@H](C)[C@@H](O[C@@H]2O[C@H](C)C[C@H](N(C)C)[C@H]2O)[C@](C)(OC)C[C@@H](C)C(=O)[C@H](C)[C@H]2N(CC3(C)CN(Cc4c[nH]c5ccc(F)cc45)C3)C(=O)O[C@]12C [6.08]	16 (≈ 19 µM)	0.25 (≈ 0.297 µM)	<0.06	<0.06	0.5 (≈ 0.593 µM)					
CC[C@H]1OC(=O)[C@H](C)C(=O)[C@H](C)[C@@H](O[C@@H]2O[C@H](C)C[C@H](N(C)C)[C@H]2O)[C@](C)(OC)C[C@@H](C)C(=O)[C@H](C)[C@H]2N(CC3(C)CN(Cc4c[nH]nc4-c4ccccc4)C3)C(=O)O[C@]12C [6.09]	>64.00	0.25 (≈ 0.293 µM)	<0.06	<0.06	0.5 (≈ 0.587 µM)					
CC[C@H]1OC(=O)[C@H](C)C(=O)[C@H](C)[C@@H](O[C@@H]2O[C@H](C)C[C@H](N(C)C)[C@H]2O)[C@](C)(OC)C[C@@H](C)C(=O)[C@H](C)[C@H]2N(CC3(C)CN(Cc4ccc5[nH]ccc5c4)C3)C(=O)O[C@]12C [6.10]						>64.00	0.12 (≈ 0.145 µM)	0.25 (≈ 0.303 µM)	<0.06	1 (≈ 1.21 µM)
CC[C@H]1OC(=O)[C@H](C)C(=O)[C@H](C)[C@@H](O[C@@H]2O[C@H](C)C[C@H](N(C)C)[C@H]2O)[C@](C)(OC)C[C@@H](C)C(=O)[C@H](C)[C@H]2N(CC3(C)CN(Cc4nc5ccccc5[nH]4)C3)C(=O)O[C@]12C.O=CO [6.11]						>64.00	<0.06	0.25	<0.06	1
CC[C@H]1OC(=O)[C@H](C)C(=O)[C@H](C)[C@@H](O[C@@H]2O[C@H](C)C[C@H](N(C)C)[C@H]2O)[C@](C)(OC)C[C@@H](C)C(=O)[C@H](C)[C@H]2N(CC3(O)CN(Cc4ccc5nccnc5c4)C3)C(=O)O[C@]12C [7.03]						>64.00	0.12 (≈ 0.143 µM)	0.12 (≈ 0.143 µM)	<0.06	0.5 (≈ 0.595 µM)
CC[C@H]1OC(=O)[C@H](C)C(=O)[C@H](C)[C@@H](O[C@@H]2O[C@H](C)C[C@H](N(C)C)[C@H]2O)[C@](C)(OC)C[C@@H](C)C(=O)[C@H](C)[C@H]2N(CC3(O)CN(Cc4c[nH]c5ncccc45)C3)C(=O)O[C@]12C [7.04]						32 (≈ 38.6 µM)	1 (≈ 1.21 µM)	<0.06	<0.06	0.5 (≈ 0.604 µM)
CCC1OC(=O)C(C)C(=O)C(C)C(OC2OC(C)CC(N(C)C)C2O)C(C)(OC)CC(C)C(=O)C(C)C2N(CC3(O)CN(C(=O)c4ccc5ncccc5c4)C3)C(=O)OC12C (stereo not drawn) [7.05]						>64.00	1 (≈ 1.17 µM)	2 (≈ 2.34 µM)	<0.06	1 (≈ 1.17 µM)
CCC1OC(=O)C(C)C(=O)C(C)C(OC2OC(C)CC(N(C)C)C2O)C(C)(OC)CC(C)C(=O)C(C)C2N(CC3(O)CN(S(=O)(=O)c4cccc5cccnc45)C3)C(=O)OC12C (stereo not drawn) [7.06]						>64.00	0.5 (≈ 0.562 µM)	32 (≈ 36 µM)	<0.06	0.5 (≈ 0.562 µM)
CC[C@H]1OC(=O)[C@H](C)C(=O)[C@H](C)[C@@H](O[C@@H]2O[C@H](C)C[C@H](N(C)C)[C@H]2O)[C@](C)(OC)C[C@@H](C)C(=O)[C@H](C)[C@H]2N(CC3(O)CN(Cc4nc(C)[nH]c4C)C3)C(=O)O[C@]12C [7.07]						>64.00	4 (≈ 4.96 µM)	8 (≈ 9.93 µM)	0.12 (≈ 0.149 µM)	16 (≈ 19.9 µM)
CC[C@H]1OC(=O)[C@H](C)C(=O)[C@H](C)[C@@H](O[C@@H]2O[C@H](C)C[C@H](N(C)C)[C@H]2O)[C@](C)(OC)C[C@@H](C)C(=O)[C@H](C)[C@H]2N(CC3(O)CN(Cc4cccc5nc[nH]c45)C3)C(=O)O[C@]12C [7.08]						>64.00	0.25 (≈ 0.302 µM)	<0.06	<0.06	0.25 (≈ 0.302 µM)
CC[C@H]1OC(=O)[C@H](C)C(=O)[C@H](C)[C@@H](O[C@@H]2O[C@H](C)C[C@H](N(C)C)[C@H]2O)[C@](C)(OC)C[C@@H](C)C(=O)[C@H](C)[C@H]2N(CC3(O)CN(Cc4c[nH]c(=O)[nH]c4=O)C3)C(=O)O[C@]12C [7.09]						>64.00	16 (≈ 19.5 µM)	64 (≈ 77.9 µM)	0.5 (≈ 0.608 µM)	16 (≈ 19.5 µM)
CC[C@H]1OC(=O)[C@H](C)C(=O)[C@H](C)[C@@H](O[C@@H]2O[C@H](C)C[C@H](N(C)C)[C@H]2O)[C@](C)(OC)C[C@@H](C)C(=O)[C@H](C)[C@H]2N(CC3(O)CN(Cc4ccc(-c5ncccn5)cc4)C3)C(=O)O[C@]12C [7.10]						>64.00	1 (≈ 1.15 µM)	64 (≈ 73.9 µM)	<0.06	2 (≈ 2.31 µM)
CC[C@H]1OC(=O)[C@H](C)C(=O)[C@H](C)[C@@H](O[C@@H]2O[C@H](C)C[C@H](N(C)C)[C@H]2O)[C@](C)(OC)C[C@@H](C)C(=O)[C@H](C)[C@H]2N(CC3(O)CN(Cc4ccno4)C3)C(=O)O[C@]12C [7.11]						>64.00	0.5 (≈ 0.642 µM)	4 (≈ 5.14 µM)	<0.06	2 (≈ 2.57 µM)
CC[C@H]1OC(=O)[C@H](C)C(=O)[C@H](C)[C@@H](O[C@@H]2O[C@H](C)C[C@H](N(C)C)[C@H]2O)[C@](C)(OC)C[C@@H](C)C(=O)[C@H](C)[C@H]2N(CC3(O)CN(Cc4ccc(-c5cncnc5)cc4)C3)C(=O)O[C@]12C [7.12]						>64.00	0.5 (≈ 0.577 µM)	>64.00	<0.06	2 (≈ 2.31 µM)
CC[C@H]1OC(=O)[C@H](C)C(=O)[C@H](C)[C@@H](O[C@@H]2O[C@H](C)C[C@H](N(C)C)[C@H]2O)[C@](C)(OC)C[C@@H](C)C(=O)[C@H](C)[C@H]2N(CC3(O)CN(Cc4ccn(-c5cccnc5)n4)C3)C(=O)O[C@]12C [7.13]						>64.00	1 (≈ 1.17 µM)	1 (≈ 1.17 µM)	<0.06	2 (≈ 2.34 µM)
CC[C@H]1OC(=O)[C@H](C)C(=O)[C@H](C)[C@@H](O[C@@H]2O[C@H](C)C[C@H](N(C)C)[C@H]2O)[C@](C)(OC)C[C@@H](C)C(=O)[C@H](C)[C@H]2N(CC3(O)CN(S(=O)(=O)c4cccc5cnccc45)C3)C(=O)O[C@]12C [7.14]						>64.00	0.12 (≈ 0.135 µM)	1 (≈ 1.12 µM)	<0.06	0.25 (≈ 0.281 µM)
CC[C@H]1OC(=O)[C@H](C)C(=O)[C@H](C)[C@@H](O[C@@H]2O[C@H](C)C[C@H](N(C)C)[C@H]2O)[C@](C)(OC)C[C@@H](C)C(=O)[C@H](C)[C@H]2N(CC3(O)CN(S(=O)(=O)c4c(C)n[nH]c4C)C3)C(=O)O[C@]12C [7.15]						>64.00	4 (≈ 4.67 µM)	>64.00	<0.06	2 (≈ 2.34 µM)
CC[C@H]1OC(=O)[C@H](C)C(=O)[C@H](C)[C@@H](O[C@@H]2O[C@H](C)C[C@H](N(C)C)[C@H]2O)[C@](C)(OC)C[C@@H](C)C(=O)[C@H](C)[C@H]2N(CC3(O)CN(S(=O)(=O)c4ccc5[nH]c(=O)oc5c4)C3)C(=O)O[C@]12C [7.16]						>64.00	4 (≈ 4.47 µM)	64 (≈ 71.5 µM)	<0.06	1 (≈ 1.12 µM)
CC[C@H]1OC(=O)[C@H](C)C(=O)[C@H](C)[C@@H](O[C@@H]2O[C@H](C)C[C@H](N(C)C)[C@H]2O)[C@](C)(OC)C[C@@H](C)C(=O)[C@H](C)[C@H]2N(CC3(O)CN(C(=O)c4ccc5cccnc5n4)C3)C(=O)O[C@]12C [7.17]						>64.00	0.5 (≈ 0.585 µM)	<0.06	<0.06	1 (≈ 1.17 µM)
CC[C@H]1OC(=O)[C@H](C)C(=O)[C@H](C)[C@@H](O[C@@H]2O[C@H](C)C[C@H](N(C)C)[C@H]2O)[C@](C)(OC)C[C@@H](C)C(=O)[C@H](C)[C@H]2N(CC3(O)CN(C(=O)c4ccc5nccnc5c4)C3)C(=O)O[C@]12C [7.18]						>64.00	0.25 (≈ 0.293 µM)	0.25 (≈ 0.293 µM)	<0.06	2 (≈ 2.34 µM)
CC[C@H]1OC(=O)[C@H](C)C(=O)[C@H](C)[C@@H](O[C@@H]2O[C@H](C)C[C@H](N(C)C)[C@H]2O)[C@](C)(OC)C[C@@H](C)C(=O)[C@H](C)[C@H]2N(CC3(O)CN(C(=O)c4cccc5ncccc45)C3)C(=O)O[C@]12C [7.19]						>64.00	0.25 (≈ 0.293 µM)	0.12 (≈ 0.141 µM)	<0.06	1 (≈ 1.17 µM)
